In patent publication EP1918289A2, “Crystalline fluoroquinolone arginine salt form” (Wockhardt Limited, priority 2002, dated 2005):

Experiments:
[1] = antibacterial activity (minimum inhibitory concentration, MIC); conditions: compared with the R-(+)- and RS-(±)- acids
[2] = hygroscopicity (exposure or storage at relative humidity, gravimetric); conditions: on exposure at a relative humidity of 41%

**Q.** With `C[C@H]1CCc2c(N3CCC(O)CC3)c(F)cc3c(=O)c(C(=O)O)cn1c23` as the compound, how does the antimicrobial activity [1] read?
**A.** more potent

**Q.** Which hygroscopicity [2] does the source give for “S-(-)-9-fluoro-6,7-dihydro-8-(4-hydroxypiperidin-1-yl)-5-methyl-1-oxo-1 H,5H-benzo[i,j] quinolizine-2-carboxylic acid, L-arginine salt 0.25 hydrate” here?
**A.** highly hygroscopic and turn into syrups

**Q.** With “S-(-)-9-fluoro-6,7-dihydro-8-(4-hydroxypiperin-1-yl)-5-methyl-1-oxo-1H,5H-benzo[i,j] quinolizine-2-carboxylic acid, L-arginine salt, 0.75 hydrate” as the compound, how does the hygroscopicity [2] read?
**A.** highly hygroscopic and turn into syrups
